From patent publication EP0418674A1, “Pharmaceutical preparations for enhanced absorption of antibacterial compounds” (priority 1989, dated 1991)

Assays:
[1] = Rectal absorption in vivo (monkeys): plasma level of the antibiotic after suppository; conditions: for Cmax: both sexes, monkey, plasma, read-out: Cmax Bereich
Excerpt: Für diesen Versuch wurden männliche und weibliche erwachsene Affen (Papio anubis und Papio hamadryas) im Gewicht vom 12-27 kg verwendet. die über Nacht vor der Verabreichung des Antibiotikums fasten gelassen wurden, dann durch i.m.-Injektionen von Ketamin-Hydrochlorid vor der Verabreichung des Antibiotikums sediert wurden. Aus den nachstehend beschriebenen Formulierungen wurden Suppositorien hergestellt die den Tieren verabreicht wurden. Die Rektalöffnungen wurden dann mit Klebeband verschlossen, um ein Herausdrücken der Suppositorienmasse zu vermeiden.
Zur Messung der Resorption des Antibiotikums in den Blutstrom wurden Blutproben aus der Femoralregion vor der Verabreichung des Antibiotikums und 15, 30, 60, 120, 240, 360 und 480 Minuten danach entnommen. Proben wurden zentrifugiert und wie oben beschrieben vermessen. Die Resultate sind in Tabelle 3 zusammengestellt: Tabelle 3

[2] = Oral absorption in vivo (monkeys): plasma concentration of Ceftriaxon after enteric-coated hard gelatin capsules by gavage; design: species or system Papio anubis und Papio hamadryas; conditions: Kontrollwert: 300 mg Ceftriaxon-Na in the same capsule without absorption enhancer
Excerpt: Erwachsene Affen (Papio anubis und Papio hamadryas) im Gewicht von 12-30 kg wurden über Nacht fasten gelassen, dann durch i.m.-Injektion von Ketaminhydrochlorid vor der Verabreichung des Antibiotikums sediert. Jeder Affe erhielt vier Hartgelatinekapseln durch Schlundsonde mit der folgenden Zusammensetzung:
Die Kapseln waren mit einem Ueberzug von Polyvinylacetatphthalat (etwa 8% des Kapselgewichtes) versehen.
Die Plasmakonzentration von Ceftriaxon wurde vor der Verabreichung und 10, 20, 40, 60, 120, 180 und 240 Minuten danach bestimmt.

[3] = Enteral absorption in vivo (rats): plasma level of the antibiotic after intraduodenal injection, agar plate bioassay; conditions: rat, 20 mg/kg, enteral (duodenum), Dosis = 5 mg/0,5 ml
Protocol: Weibliche Ratten im Gewicht von etwa 250 g wurden über Nacht fasten gelassen und mit Metofan anästhesiert. Die Antibiotika wurden in Lösung mit oder ohne Resorptionsverstärker nach Bauchschnitt in das Duodenum unterhalb des Magenausgangs injiziert. Für Vergleichszwecke wurde die Lösung alternativ intravenös in die Schwanzvene appliziert. Die Antibiotika wurden in Wasser gelöst, so dass die Lösungen (mit oder ohne Verstärker) 20 mg/kg, etwa 5 mg pro Ratte, enthielten.
Die Konzentration des Antibiotikums im Plasma der Ratte wurde nach verschiedenen Zeitintervallen nach intravenöser oder enteraler Verabreichung bestimmt. Blutproben wurden aus der Schwanzvene des Versuchstiers vor der Verabreichung des Antibiotikums und 5, 10, 20, 40, 60, 120, 240 und 360 Minuten danach entnommen, danach zentrifugiert und das Plasma bis zur Analyse eingefroren.
Antibiotika, die nicht an Plasma gebunden waren, wurden mit Wasser verdünnt und gegen in Wasser hergestellte Standards geprüft. Für gebundene Antibiotika wurde der Einfluss der Proteinbindung eliminiert durch Verdünnen aller Standardlösungen und Proben im gesammelten Plasma. Im Fall von Ceftriaxon und Cefazolin wurde der Effekt der Bindung dadurch berücksichtigt, dass Plasmaproben mit Acetonitril mit einem Verdünnungsfaktor 1:12 deproteinisiert und gegen eine Standardkurve in Wasser verdünnt gemessen wurden. Antibiotikaspiegel wurden wie in Tabelle 1 angegeben auf Agarplatten ermittelt. Tabelle 1
Die Platten wurden bei 37°C über Nacht bebrütet und die Hemmzonen auf die nächsten […] abgelesen. Die Berechnungen wurden mittels einer Autoassaymaschine (Giles Scientific, Inc., New York) vorgenommen. Vergleiche J.V. Bennett et al., Applied Microbiology 14, 170-177 (1966).

[4] = 500 mg, rectal suppository, Mit Resorptionsverstärker, Formulierung C (500 mg antibiotic, Labrasol 250 mg, Caprylsäure 200 mg)
[5] = rectal suppository, Mit Resorptionsverstärker, Formulierung D (500 mg antibiotic, Labrasol 250 mg, Caprylsäure 100 mg, Natriumcaprylat 100 mg)
[6] = rectal, Kontrolle ohne Resorptionsverstärker
[7] = rectal suppository, Mit Resorptionsverstärker, Formulierung C (500 mg antibiotic, Labrasol 250 mg, Caprylsäure 200 mg)

SMILES	Cmax [1, 4] [ng/mL]	Cmax [1, 5] [ng/mL]	Cmax [1, 6] [ng/mL]	% Bioverfügbarkeit [1, 7] [%]	% Bioverfügbarkeit [1, 5] [%]	% Bioverfügbarkeit [1, 6] [%]	also measured
CO[C@@]1(NC(=O)C2SC(=C(C(N)=O)C(=O)O)S2)C(=O)N2C(C(=O)O)=C(CSc3nnnn3C)CS[C@@H]21 (some centres unmarked) [Cefotetan]	4300 to 21100	2500 to 61500	2400 to 10100	11.4 ± 7.4	24.1 ± 12.8	4.9 ± 3.1	Cmax Bereich ([1]; rectal, Kontrolle ohne Resorptionsverstärker, listed as Cefotetran): 3400 to 10100 ng/mL
CO/N=C(\C(=O)N[C@@H]1C(=O)N2C(C(=O)O)=C(CSc3nc(=O)c(=O)[nH]n3C)CS[C@H]12)c1csc(N)n1 [Ceftriaxon-Na, Ceftriaxon-Natrium]	–	–	–	–	–	–	Bioverfügbarkeit [2]: 0%
CO/N=C(\C(=O)N[C@@H]1C(=O)N2C(C(=O)O)=C(CSc3nc(=O)c(=O)[nH]n3C)CS[C@H]12)c1csc(N)n1 [Ceftriaxon]	21600 to 46600	16300 to 38300	300 to 9000	17.3 ± 4.8	17.1 ± 5.0	4.3 ± 2.8	Cmax ([3]; female, plasma, other: intraduodenal injection (enteral), Labrasol + Caprylsäure + Natriumcaprylat, weight ratio 4:1:1): 52200 ± 22500 ng/mL; Cmax ([3]; female, plasma, other: intraduodenal injection (enteral), Labrasol + Caprylsäure, weight ratio 2:1): 57000 ± 10200 ng/mL
CC1(C)S[C@@H]2[C@H](NC(=O)Cc3ccccc3)C(=O)N2[C@H]1C(=O)O [Penicillin G]	–	–	–	–	–	–	Cmax ([3]; in vivo, Labrasol + Caprylsäure + Natriumcaprylat, weight ratio 4:1:1): 2900 ± 1600 ng/mL; Cmax ([3]; in vivo, Labrasol + Caprylsäure, weight ratio 2:1): 7200 ± 700 ng/mL
CN[C@H](CC(C)C)C(=O)N[C@H]1C(=O)N[C@@H](CC(N)=O)C(=O)N[C@H]2C(=O)N[C@H]3C(=O)N[C@H](C(=O)N[C@H](C(=O)O)c4cc(O)cc(O)c4-c4cc3ccc4O)[C@H](O)c3ccc(c(Cl)c3)Oc3cc2cc(c3O[C@@H]2O[C@H](CO)[C@@H](O)[C@H](O)[C@H]2O[C@H]2C[C@](C)(N)[C@H](O)[C@H](C)O2)Oc2ccc(cc2Cl)[C@H]1O [Vancomycin]	–	–	–	–	–	–	Cmax ([3]; female, in vivo, Labrasol + Caprylsäure + Natriumcaprylat, weight ratio 4:1:1): 5300 ± 2100 ng/mL; Cmax ([3]; female, in vivo, Labrasol + Caprylsäure, weight ratio 2:1): 8000 ± 2300 ng/mL
